# ChEMBL document CHEMBL1201862, “PubChem BioAssay data set” (2004)
# The source made the active and inactive calls.
# Assays:
# [1] = Luminescence Cell-Based Dose Response HTS to Identify Activators of Luciferase Translation or Activity in H4 […] Cells. [Related pubchem assays: 1829 (Project Summary), 1814 (Primary HTS)]; type: functional
# [2] = Luminescence Cell-Based Dose Confirmation HTS to Identify Activators of 5'UTR Stem-Loop Driven Alpha-Synuclein mRNA Translation in H4 Neuroglioblastoma Cells. [Related pubchem assays: 1829 (Project Summary), 1814 (Primary HTS)]; type: functional
# H4 = assay: Luminescence Cell-Based Dose Response HTS to Identify Activators of 5'UTR Stem-Loop Driven Prion Protein mRNA Translation in H4 Neuroglioblastoma Cells. [Related pubchem assays: 1829 (Project Summary), 1814 (Primary HTS)]; type: functional; details: Homo sapiens
# [3] = microbe, parasite or virus in culture; type: functional; details: Mycobacterium tuberculosis
# [4] = Luminescence Cell-Based Dose Retest to Confirm Inhibitors of Cancer Stem Cells. [Related pubchem assays (depositor defined):AID2717, AID2721]; type: functional; details: Homo sapiens
# Protein skinhead-1 = target: T1, Protein skinhead-1 (Caenorhabditis elegans, UniProt P34707); type: functional
# T1 sequence (P34707 whole entry): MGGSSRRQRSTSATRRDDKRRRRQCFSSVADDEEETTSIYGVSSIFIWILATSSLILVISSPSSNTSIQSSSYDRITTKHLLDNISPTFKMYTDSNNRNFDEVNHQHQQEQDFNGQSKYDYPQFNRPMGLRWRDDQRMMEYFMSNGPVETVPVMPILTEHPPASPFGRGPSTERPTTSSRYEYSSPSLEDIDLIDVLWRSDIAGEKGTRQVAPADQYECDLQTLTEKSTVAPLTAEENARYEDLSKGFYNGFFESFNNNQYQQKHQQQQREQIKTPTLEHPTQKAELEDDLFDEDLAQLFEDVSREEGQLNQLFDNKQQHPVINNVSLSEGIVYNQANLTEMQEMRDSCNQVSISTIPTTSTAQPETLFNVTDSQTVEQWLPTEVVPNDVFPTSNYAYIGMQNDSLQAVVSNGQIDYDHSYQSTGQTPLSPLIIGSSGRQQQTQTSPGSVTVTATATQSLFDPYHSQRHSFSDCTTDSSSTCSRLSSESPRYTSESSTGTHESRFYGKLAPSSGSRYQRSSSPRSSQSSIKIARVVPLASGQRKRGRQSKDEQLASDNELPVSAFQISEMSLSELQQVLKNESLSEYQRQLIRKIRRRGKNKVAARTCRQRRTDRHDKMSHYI
# P388/ADR = assay: cells; type: functional
# SN12K1 = assay: cells; type: functional; details: Homo sapiens
# P388 = assay: cells; type: functional
# Streptokinase A = target: T2, Streptokinase A (Streptococcus pyogenes serotype M1, UniProt P10520); assay: S. pyogenes streptokinase expression inhibitors, potency, dose response, plasminogen activation absorbance, OD405 (AID 1914); type: functional, Streptococcus pyogenes M1 GAS;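 further: secreted streptokinase activity via plasminogen activation per viability signal from cell pellet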
# T2 sequence (P10520 whole entry): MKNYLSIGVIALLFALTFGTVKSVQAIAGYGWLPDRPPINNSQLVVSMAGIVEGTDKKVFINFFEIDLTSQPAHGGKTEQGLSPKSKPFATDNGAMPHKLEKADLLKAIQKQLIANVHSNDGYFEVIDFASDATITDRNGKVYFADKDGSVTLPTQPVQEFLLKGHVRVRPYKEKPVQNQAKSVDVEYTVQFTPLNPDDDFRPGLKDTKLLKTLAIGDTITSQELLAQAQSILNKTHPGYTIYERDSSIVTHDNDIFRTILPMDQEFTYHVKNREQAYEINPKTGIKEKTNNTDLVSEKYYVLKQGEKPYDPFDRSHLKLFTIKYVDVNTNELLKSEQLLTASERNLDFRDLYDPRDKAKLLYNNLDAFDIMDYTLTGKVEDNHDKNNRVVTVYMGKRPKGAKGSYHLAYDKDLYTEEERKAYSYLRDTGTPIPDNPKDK
# Streptococcus = assay: Group A Streptococcus viability loss, dose response, counter-screen for streptokinase expression inhibitor project, luminescence, BacTiterGlo (AID 1915); type: functional, organism-based;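 further: potency for reduction of bacterial viability or growth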
# [5] = tested on: Streptococcus sp. 'group A'; assay: growth inhibition of control SK(-) GAS strain, dose response, counter-screen for streptokinase expression inhibitor project, luminescence, kanamycin, BacTiterGlo, confirmation (AID 1900); type: functional, organism-based
# [6] = growth suppression of PTEN-null colon cells, dose response, cell-based, HCT116 PTEN knockout (AID 1047); type: functional;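 further: HCT116 colon tumor cells with PTEN knocked out; cells exposed to compound for 60 hours before readout; potency for loss of cell viability measured by luminescence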
# [7] = growth suppression of beta-catenin-knockout colon cells, dose response, cell-based, HCT116, human colon tumor (AID 1045); type: functional;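 further: HCT116 colon tumor cells with beta catenin knocked out; cells exposed to compound for 60 hours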
# [8] = P. falciparum Dd2 growth inhibitors, dose response, SYBR Green, cherry-picked samples (AID 1159567); type: functional, cell-based
smiles,measurement,setting,value
Cc1cccn2c(O)c(C(=O)NC3CCCCC3)c(=O)nc12,EC50,[1],> 120 µM (not active)
same,EC50,[2],> 120 µM (not active)
same,EC50,H4,> 120 µM (not active)
Cc1cc(N2CCCCC2)n2ncc(-c3ccc(Cl)cc3)c2n1,CC50,[3],> 40 µM (active)
same,AC50,[4],4.92 µM (active)
CC(C(=O)N1CCN(C)CC1)N1C(=O)c2ccccc2C1=O (stereo unspecified),IC50,Protein skinhead-1,> 100 µM (inactive)
Cn1c(NC(=O)/C=C/c2ccccc2)cc(=O)n(C)c1=O,EC50,[1],26.1 µM (active)
same,EC50,[2],14.9 µM (active)
same,EC50,H4,68.7 µM (inconclusive)
O=C(COc1ccc(Br)cc1Cl)NC1CCCCC1,EC50,[1],0.128 µM (inconclusive)
same,EC50,[2],0.174 µM (active)
CC1=C(O)C(=O)[C@@H]2O[C@@H]2C1=O,GI50,"P388/ADR; Mus musculus, P388/ADR",1.09 µM (active)
same,GI50,SN12K1,11.1 µM (inactive)
same,GI50,"P388; Mus musculus, P388",0.542 µM (active)
CC(=O)Nc1ccc(S(=O)(=O)N2CCN=C2SCc2ccc(C)cc2)cc1,EC50,[1],48.2 µM (active)
same,EC50,Streptokinase A,> 150 µM (not active)
same,EC50,Streptococcus,> 150 µM (not active)
same,EC50,[2],45 µM (active)
same,EC50,[5],> 150 µM (not active)
same,EC50,H4,8.96 µM (active)
CCOC(=O)c1c(NC(=O)CSc2nc3cc(OC)ccc3[nH]2)sc2c1CC(C)(C)NC2(C)C,CC50,[3],21.6 µM (active)
CC(C)c1nnc(NC(=O)CCC(=O)N2CCN(c3ccc(Cl)cc3)CC2)s1,CC50,[3],> 40 µM (active)
Cc1ccc(Cn2nc(C)cc2C(=O)Nc2ccccc2Cl)cc1,EC50,[1],21.3 µM (active)
same,EC50,[2],1.49 µM (active)
same,EC50,H4,33.9 µM (active)
CCCCSc1nc(O)c(C(=O)OCC)cc1C#N,IC50,Protein skinhead-1,> 100 µM (inactive)
Clc1ccc(OCc2cnc(Cl)s2)cc1,IC50,Protein skinhead-1,13.2 µM (active)
O=[N+]([O-])c1ccc2c(c1)nc1n2CCN(C2CCCCC2)C1,EC50,[1],80.8 µM (active)
same,EC50,[2],17.6 µM (active)
CCC(C(=O)Nc1cccc(S(=O)(=O)N(C)c2ccccc2)c1)c1ccccc1 (stereo unspecified),IC50,Protein skinhead-1,> 100 µM (inactive)
COC(=O)c1cccc(CC2(C)C(=O)Nc3ccc(OC(F)(F)F)cc32)c1 (stereo unspecified),IC50,Protein skinhead-1,88.5 µM (inactive)
N#CC(OC1OC(COC2OC(CO)C(O)C(O)C2O)C(O)C(O)C1O)c1ccccc1 (stereo unspecified),GI50,"P388/ADR; Mus musculus, P388/ADR",> 225 µM (inactive)
same,GI50,SN12K1,> 225 µM (inactive)
same,GI50,"P388; Mus musculus, P388",> 225 µM (inactive)
COc1ccc2o/c(=N/c3cc(F)ccc3F)c(C(N)=O)cc2c1,EC50,[1],> 120 µM (not active)
same,EC50,[2],> 120 µM (not active)
same,EC50,H4,> 120 µM (not active)
O=P1(Oc2ccc(Cl)cc2Cl)Oc2cc3ccccc3cc2O1,GI50,"P388/ADR; Mus musculus, P388/ADR",22.4 µM (inactive)
same,GI50,SN12K1,59.4 µM (inactive)
same,GI50,"P388; Mus musculus, P388",14 µM (inactive)
Cc1c2cnccc2c(C)c2c1c1ccccc1n2CCCN,GI50,"P388/ADR; Mus musculus, P388/ADR",0.157 µM (active)
same,GI50,SN12K1,0.222 µM (active)
same,GI50,"P388; Mus musculus, P388",0.0931 µM (active)
C=C1CC(OC)(C(O)C(=O)N[C@H]2OCO[C@H]3C2O[C@H](C[C@H](O)COC)C(C)(C)C3OC)O[C@H](C)[C@@H]1C (stereo partly specified),GI50,"P388/ADR; Mus musculus, P388/ADR",< 0.00773 µM (active)
same,GI50,SN12K1,< 0.00773 µM (active)
same,GI50,"P388; Mus musculus, P388",< 0.00773 µM (active)
CSCC[C@@H](NC(=O)[C@H](CC(C)C)NC(=O)C(Cc1cnc[nH]1)NC(=O)CNC(=O)[C@@H](NC(=O)[C@H](C)NC(=O)[C@H](Cc1c[nH]c2ccccc12)NC(=O)[C@H](CCC(N)=O)NC(=O)[C@@H](N)CC(N)=O)C(C)C)C(N)=O (stereo partly specified),GI50,"P388/ADR; Mus musculus, P388/ADR",> 100 µM (inactive)
same,GI50,SN12K1,> 100 µM (inactive)
same,GI50,"P388; Mus musculus, P388",> 100 µM (inactive)
NC(=O)c1csc(C2OC(CO)C(O)C2O)n1 (stereo unspecified),GI50,"P388/ADR; Mus musculus, P388/ADR",1.79 µM (inactive)
same,GI50,SN12K1,77.8 µM (inactive)
same,GI50,"P388; Mus musculus, P388",1.86 µM (inactive)
Nc1ncn(C2OC(CO)C(O)C2O)c(=O)n1 (stereo unspecified),GI50,P388/ADR,0.489 µM (active)
same,GI50,"P388/ADR; Mus musculus, P388/ADR",0.393 µM (active)
same,GI50,P388,0.452 µM (active)
same,GI50,"P388; Mus musculus, P388",0.348 µM (active)
Cc1ccc(Nc2nc(/N=C/N(C)C)n[nH]2)cc1C,EC50,[1],> 120 µM (not active)
same,EC50,[2],> 120 µM (not active)
same,EC50,H4,28.2 µM (active)
FCCCOc1ccc(/C=N/OCc2ccc(Cl)cc2)cc1,IC50,Protein skinhead-1,> 100 µM (inactive)
CCOC(=O)c1ccc(-c2ccc(/C=N/NC(=O)CN(c3ccccc3Cl)S(C)(=O)=O)o2)cc1,EC50,[1],28.6 µM (active)
same,EC50,[6],29.4 µM (active)
same,EC50,[2],14.3 µM (active)
same,EC50,[7],37.6 µM (active)
same,EC50,H4,33.3 µM (active)
C#CCn1/c(=N/C(=O)c2cc(Cl)sc2Cl)sc2cc(S(N)(=O)=O)ccc21,CC50,[3],> 40 µM (active)
same,EC50,Streptokinase A,> 150 µM (not active)
same,EC50,Streptococcus,> 150 µM (not active)
same,EC50,[5],14 µM (active)
O=C(c1cccc(F)c1)N1CC[C@H]2[C@H](CO)Nc3ccc(C#Cc4cccc(F)c4)cc3[C@H]21,AC50,[8],4.2 µM (active)
CCCC(=O)N1CC2(C1)CN(Cc1ccccc1F)[C@H](CO)c1c2c2ccc(OC)cc2n1C,AC50,[8],6.14 µM (active)
N#C[C@@H]1[C@H](c2ccccc2C2=CCCCC2)[C@@H](CO)N1S(=O)(=O)c1ccccc1,AC50,[8],15 µM (active)
C/C=C/c1ccc([C@@H]2[C@H](CO)N(CC3CCCC3)C23CN(C(=O)CC2CC2)C3)cc1,AC50,[8],5.78 µM (active)
CCC(=O)Nc1ccc2c(c1)C(=O)N(C)C[C@H](OC)[C@H](C)CN(Cc1cccc(F)c1)[C@@H](C)CO2,AC50,[8],11.3 µM (active)
CC1(C)CC(=O)c2sc(N3CCCCC3)nc2C1,EC50,[1],68.7 µM (active)
same,EC50,[2],8.85 µM (active)
same,EC50,H4,74 µM (active)
Cc1cc(C)n(CC(O)COc2ccc3ccccc3c2)n1 (stereo unspecified),EC50,[1],16.5 µM (active)
same,EC50,[2],16.4 µM (active)
same,EC50,H4,31.3 µM (active)
Cc1c(-c2ccc(-c3ccccc3F)cc2)nc2ccc(F)cc2c1C(=O)O [BREQUINAR SODIUM],GI50,"P388/ADR; Mus musculus, P388/ADR",0.197 µM (active)
same,GI50,SN12K1,0.0902 µM (active)
same,GI50,"P388; Mus musculus, P388",0.359 µM (active)
CC[C@](C)(O)C(=O)O[C@H]1C(=O)O[C@@H]2C[C@H]3C(C)=CC(=O)[C@@H](O)[C@]3(C)[C@H]3[C@@]4(O)OC[C@]32[C@@H]1[C@@H](C)[C@H]4O [GLAUCARUBINONE],GI50,"P388/ADR; Mus musculus, P388/ADR",0.664 µM (active)
same,GI50,SN12K1,0.05 µM (active)
same,GI50,"P388; Mus musculus, P388",0.0676 µM (active)
